Read-outs that look alike come from different tables or passages of the source.
What was measured:
[1] = NOAEL exposure in rats vs human dose
[2] = Total plasma Cmin at steady state, human dose; assay type: in vivo
[3] = NOAEL exposure in dogs vs human dose
F508del-CFTR = biological target: T1, F508del-CFTR (Homo sapiens, UniProt P13569, DEL508-508); assay: Ussing chamber electrophysiology, acute potentiation of F508del-CFTR current in corrected CF-hBE cells; assay type: cell-based; conditions: for Maximum efficacy (Emax), relative efficacy: normalized to response of 1 μM ivacaftor (=1.0), cells treated with the three correctors
T1 construct: endogenous in cells; host or cells: CF-hBE (primary human bronchial epithelial cells from CF donors)
Protocol: Methods: […] Electrophysiology assays were conducted in an Ussing chamber in which corrected cells were treated with ascending concentrations of […] (0.001-10 μM) or ivacaftor (0.0003-1.0 μM). […] FIG. 1 legend: Ussing assay dose-response curves for potentiation of F508del-CFTR current following acute addition of ivacaftor (0.0003-1.0 μM, black circles) and […] (0.001-10 μM, blue squares labeled FDL176). Cells were corrected with lumacaftor (left), tezacaftor (middle), or FDL169 (right), each at 3 μM. For each corrector treatment group, dose response data for ivacaftor and […] were normalized to the response following activation with 1 μM ivacaftor (with matched corrector). Error bars represent SEM. CF-hBE=cystic fibrosis primary human bronchial epithelial cells; CFTR=cystic fibrosis transmembrane conductance regulator; SEM=standard error of the mean.

G551D variant = G551D variant (Homo sapiens, UniProt P13569, G551D); assay: Potentiator EC50 for the G551D CFTR variant; assay type: cell-based
[4] = cystic fibrosis patients with comorbid pancreatic diseases (Carrion et al. 2018); cited from earlier work

T1 sequence (P13569 with tags, fused parts or gaps DEL508-508): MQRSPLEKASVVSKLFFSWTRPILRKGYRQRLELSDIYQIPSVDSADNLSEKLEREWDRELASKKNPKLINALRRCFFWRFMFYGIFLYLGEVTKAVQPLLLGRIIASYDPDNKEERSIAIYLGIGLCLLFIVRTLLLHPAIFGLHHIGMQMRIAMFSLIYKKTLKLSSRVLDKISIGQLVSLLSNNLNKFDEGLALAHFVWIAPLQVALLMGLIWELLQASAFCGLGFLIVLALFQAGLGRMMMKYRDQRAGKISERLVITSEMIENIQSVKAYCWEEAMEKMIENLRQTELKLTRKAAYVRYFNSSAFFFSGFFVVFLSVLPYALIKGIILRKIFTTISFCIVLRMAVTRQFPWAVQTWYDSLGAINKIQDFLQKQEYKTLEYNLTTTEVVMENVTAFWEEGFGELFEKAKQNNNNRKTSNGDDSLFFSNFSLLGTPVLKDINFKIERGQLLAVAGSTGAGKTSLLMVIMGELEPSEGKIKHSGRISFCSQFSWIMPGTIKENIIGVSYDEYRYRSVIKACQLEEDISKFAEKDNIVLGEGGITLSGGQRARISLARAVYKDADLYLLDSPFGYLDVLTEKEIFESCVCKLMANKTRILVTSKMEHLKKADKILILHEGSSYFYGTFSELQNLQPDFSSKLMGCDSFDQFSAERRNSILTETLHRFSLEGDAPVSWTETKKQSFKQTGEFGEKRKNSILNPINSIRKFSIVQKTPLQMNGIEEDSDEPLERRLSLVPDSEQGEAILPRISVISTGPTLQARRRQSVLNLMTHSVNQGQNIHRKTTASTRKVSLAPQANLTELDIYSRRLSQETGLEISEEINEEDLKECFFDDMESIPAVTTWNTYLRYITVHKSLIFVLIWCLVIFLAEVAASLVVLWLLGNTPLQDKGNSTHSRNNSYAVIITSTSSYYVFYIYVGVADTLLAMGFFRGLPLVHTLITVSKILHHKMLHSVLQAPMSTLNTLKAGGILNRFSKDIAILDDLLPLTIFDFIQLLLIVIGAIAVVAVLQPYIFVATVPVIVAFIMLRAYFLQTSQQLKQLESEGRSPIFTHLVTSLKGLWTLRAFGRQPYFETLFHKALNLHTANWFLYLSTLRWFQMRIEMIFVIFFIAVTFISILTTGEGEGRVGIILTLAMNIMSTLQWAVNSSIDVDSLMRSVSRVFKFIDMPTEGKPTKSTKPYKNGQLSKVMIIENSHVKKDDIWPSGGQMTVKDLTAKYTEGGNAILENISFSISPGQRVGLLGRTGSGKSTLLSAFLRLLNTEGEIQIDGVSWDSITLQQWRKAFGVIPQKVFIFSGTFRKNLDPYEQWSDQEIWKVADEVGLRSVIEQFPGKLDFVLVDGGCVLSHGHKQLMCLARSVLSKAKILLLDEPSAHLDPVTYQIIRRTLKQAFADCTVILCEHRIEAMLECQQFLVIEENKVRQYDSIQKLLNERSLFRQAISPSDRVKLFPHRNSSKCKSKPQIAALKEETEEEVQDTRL
Chain of G551D variant (P13569 whole entry G551D): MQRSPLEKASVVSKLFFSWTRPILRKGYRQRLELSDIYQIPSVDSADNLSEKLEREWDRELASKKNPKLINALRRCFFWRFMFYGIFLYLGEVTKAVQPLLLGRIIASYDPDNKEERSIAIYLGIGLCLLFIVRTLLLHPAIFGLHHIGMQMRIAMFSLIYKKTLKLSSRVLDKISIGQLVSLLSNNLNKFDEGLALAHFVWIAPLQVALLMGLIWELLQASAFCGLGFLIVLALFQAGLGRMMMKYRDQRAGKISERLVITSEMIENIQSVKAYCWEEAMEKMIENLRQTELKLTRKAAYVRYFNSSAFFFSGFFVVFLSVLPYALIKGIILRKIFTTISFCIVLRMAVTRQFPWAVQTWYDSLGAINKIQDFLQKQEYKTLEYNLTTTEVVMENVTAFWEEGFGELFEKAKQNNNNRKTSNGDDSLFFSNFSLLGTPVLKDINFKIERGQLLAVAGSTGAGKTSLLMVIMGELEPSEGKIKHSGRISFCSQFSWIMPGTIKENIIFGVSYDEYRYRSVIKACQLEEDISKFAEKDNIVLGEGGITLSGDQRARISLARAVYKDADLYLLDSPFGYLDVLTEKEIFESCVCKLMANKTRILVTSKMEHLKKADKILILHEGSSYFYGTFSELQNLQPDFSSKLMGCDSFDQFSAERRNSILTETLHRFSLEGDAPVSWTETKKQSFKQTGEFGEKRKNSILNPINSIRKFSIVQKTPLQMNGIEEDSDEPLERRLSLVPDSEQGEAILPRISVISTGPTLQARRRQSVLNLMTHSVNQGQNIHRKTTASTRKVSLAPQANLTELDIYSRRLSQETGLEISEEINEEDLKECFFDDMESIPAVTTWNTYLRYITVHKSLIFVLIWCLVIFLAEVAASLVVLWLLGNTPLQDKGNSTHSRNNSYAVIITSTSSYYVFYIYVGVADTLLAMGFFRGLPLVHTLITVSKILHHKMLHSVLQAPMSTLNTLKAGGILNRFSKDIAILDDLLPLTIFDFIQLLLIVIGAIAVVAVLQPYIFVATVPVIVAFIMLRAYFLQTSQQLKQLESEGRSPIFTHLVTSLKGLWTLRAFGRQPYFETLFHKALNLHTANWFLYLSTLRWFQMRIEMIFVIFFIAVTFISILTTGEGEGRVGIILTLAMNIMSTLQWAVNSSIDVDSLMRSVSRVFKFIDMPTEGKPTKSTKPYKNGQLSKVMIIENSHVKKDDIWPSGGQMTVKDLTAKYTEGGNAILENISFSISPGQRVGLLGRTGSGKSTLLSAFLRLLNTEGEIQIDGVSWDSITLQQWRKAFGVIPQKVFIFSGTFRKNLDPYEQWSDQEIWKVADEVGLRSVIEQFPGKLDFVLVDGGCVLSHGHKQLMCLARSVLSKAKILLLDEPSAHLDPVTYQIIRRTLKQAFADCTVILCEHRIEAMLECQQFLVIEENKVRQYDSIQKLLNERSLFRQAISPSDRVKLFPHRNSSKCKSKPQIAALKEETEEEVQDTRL

| SMILES | Safety margin of NOAEL exposure over a 50 mg human dose [1] [fold] | Total plasma Cmin at steady state ([2]; 30 mg dose) [µM] | Total plasma Cmin at steady state ([2]; 50 mg dose) [µM] | Safety margin of NOAEL exposure over a 50 mg human dose [3] [fold] | EC50 (F508del-CFTR; CF-hBE cells corrected with FDL169 3 μM, acute addition (<1 hour), read-out: EC50, potentiation of F508del-CFTR current) [µM] | EC50 (F508del-CFTR; CF-hBE cells corrected with lumacaftor 3 μM, acute addition (<1 hour), read-out: EC50, potentiation of F508del-CFTR current) [µM] | EC50 (F508del-CFTR; CF-hBE cells corrected with tezacaftor 3 μM, acute addition (<1 hour), read-out: EC50, potentiation of F508del-CFTR current) [µM] | Maximum efficacy (Emax), relative efficacy (F508del-CFTR) | EC50 (G551D variant) [µM] | Recurrence rate of pancreatitis [4] | EC50 (F508del-CFTR; corrector treated CF-hBE cells (lumacaftor, tezacaftor, FDL169), acute addition, read-out: EC50 range, potentiation of F508del-CFTR current) [µM] |
| --- | --- | --- | --- | --- | --- | --- | --- | --- | --- | --- | --- |
| Cl.O=S(=O)(c1ccccc1)c1ccc2nc(NCc3ccc(-c4ccccn4)cc3)nn2c1 [X0176, 6-(phenylsulfonyl)-N-(4-(pyridin-2-yl)benzyl)-[1,2,4]triazolo[1,5-a]pyridin-2-amine hydrochloride] | 3.4 | 2.18 | 3.17 | 1.1 | 0.204 ± 0.0244 | 0.133 ± 0.0181 | 0.202 ± 0.0446 | 1.0 | 2.6 | – | – |
| CC(C)(C)c1cc(C(C)(C)C)c(NC(=O)c2c[nH]c3ccccc3c2=O)cc1O [ivacaftor, reference compound] | – | – | – | – | – | – | – | 1.0 | – | decreased recurrence rate of pancreatitis | 0.0036 to 0.0091 |

From patent US20230201172A1, “METHODS OF TREATING CFTR RELATED DISEASES AND DISORDERS” (ARIEL PRECISION MEDICINE, INC., priority 2020, published 2023)
